# Tested on: Plasmopara viticola
# Experiment: activity against peronospora of grapevines caused by Plasmopara viticola (protective spray on potted vines)
# Type: in vivo, Plasmopara viticola on vines of the cultivar "Riesling"
# Settings: individual active compound, untreated control 88% infection
# Experimental: The active compounds, separately or jointly, were prepared as a stock solution comprising 0.25% by weight of active compound in acetone or DMSO. 1% by weight of the emulsifier Uniperol® EL (wetting agent having emulsifying and dispersant action based on ethoxylated alkylphenols) was added to this solution, and the mixture was diluted with water to the desired concentration.
# Use example—activity against peronospora of grapevines caused by Plasmopara viticola
# Leaves of potted vines of the cultivar “Riesling” were sprayed to runoff point with an aqueous suspension having the concentration of active compound stated below. The next day, the undersides of the leaves were inoculated with an aqueous zoospore suspension of Plasmopara viticola. The grapevines were then initially placed in a water-vapor-saturated chamber at 24° C. for 48 hours and then in a greenhouse at 20-30° C. for 5 days. After this period of time, the plants were again placed in a humid chamber for 16 hours to promote sporangiophore eruption. The extent of the development of the disease on the undersides of the leaves was then determined visually.
# The visually determined percentages of infected leaf areas were converted into efficacies in % of the untreated control:
# The efficacy (E) is calculated as follows using Abbot's formula: […]
# α corresponds to the fungicidal infection of the treated plants in % and β corresponds to the fungicidal infection of the untreated (control) plants in %
# An efficacy of 0 means that the infection level of the treated plants corresponds to that of the untreated control plants; an efficacy of 100 means that the treated plants were not infected.
# The expected efficacies of mixtures of active compounds were determined using Colby's formula (Colby, S. R. “Calculating synergistic and antagonistic responses of herbicide combinations”, Weeds, 15, 20-22, 1967) and compared with the observed efficacies.
# E expected efficacy, expressed in % of the untreated control, when using the mixture of the active compounds A and B at the concentrations a and b x efficacy, expressed in % of the untreated control, when using the active compound A at the concentration a y efficacy, expressed in % of the untreated control, when using the active compound B at the concentration b
Structure (SMILES),Efficacy in % of the untreated control (16 ppm in the spray liquor),Efficacy in % of the untreated control (63 ppm in the spray liquor)
"CC1CCN(c2c(-c3c(F)cc(F)cc3F)c(Cl)nc3ncnn23)CC1 [compound I, 5-chloro-7-(4-methylpiperidin-1-yl)-6-(2,4,6-trifluorophenyl)[1,2,4]triazolo[1,5-a]pyrimidine]",55%,66%
"Cc1ccc(N(SC(F)(Cl)Cl)S(=O)(=O)N(C)C)cc1 [compound II, N-dichlorofluoromethylthio-N′,N′-dimethyl-N-p-tolylsulfamide]",0%,21%

# Reference: patent US20080153700A1, “Fungicidal Mixtures” (Basf Aktiengesellschaft, priority 2004, published 2008)
